Data from EP0755928B1, “5-AMINOFLAVONE DERIVATIVES” (KYOWA HAKKO KOGYO CO., Ltd., priority 1995, dated 1996).

Experiments:
[1] = system: estrogen-dependent human mammary cancer MCF-7; assay: Antitumor effects against estrogen-dependent human mammary cancer MCF-7 transplanted in nude mice; format: in vivo, female BALB/c-nu/nu mouse; conditions: Mus musculus, MCF7, po; dose 25 mg/kg orally, 5 days per week for two weeks; ratio of V/V0 of treated group to control group; judgement date day 14 to 25, differs per compound; read-out: T/C
Description: Antitumor effects against estrogen-dependent human mammary cancer MCF-7
The tumor fragment (2 mm x 2 mm x 2mm) of human hormone dependent mammary cancer MCF-7 was transplanted subcutaneously in the flank of female BALB/c-nu/nu mouse (Nihon Crea), 7 to 9 weeks age. […] Mice having the tumor volume 25 to 200 mm^3 were selected 3 to 4 weeks after transplantation, and the test compounds were orally administered repeatedly to the groups (5 animals per group) for 5 days per a week, for total two weeks. In addition, estradiol propionate was administered again on the date of initial administration of the test compounds. Length and width of the tumor were determined every day, and the tumor volumes were calculated by means of ellipsoid approximation according to the following equation: […] [formula]
The tumor volume at initial administration (V0) and on the day of judgement (V) was calculated, and the tumor growth rate (V/V0) was calculated. T/C value was obtained as the ratio of V/V0 value of treated group relative to that of control group.

[2] = system: Human mammary cancer MCF-7 cell; assay: Human mammary cancer MCF-7 cell growth inhibition test (neutral red); format: cell-based; conditions: MCF7, MCF-7 cells, 72 hours, medium with 10^-8M estradiol, neutral red absorbance at 550 nm
Protocol: Human mammary cancer MCF-7 cell growth inhibition test
Each 0.1 ml of MCF-7 cells which had been prepared in a concentration of 5 x 10^4/ml using a medium prepared by adding 10% bovine fetal serum, 10^-8M estradiol (manufactured by Sigma), 100 units/ml penicillin and 100 µg/ml streptomycin to RPMI1640 medium (referred to as Medium B hereinafter) was distributed in each well of 96 well-microtiter plate. […] The supernatant was removed, each 0.1 ml of Medium B containing 0.02% neutral red was added to the residue, the mixture was allowed to stand at 37 °C for 1 hour in a CO2 gas incubator and the cells were stained by neutral red dye. The supernatant was removed and the residue was washed once with a physiological saline. Then, the dye was extracted with 0.001 N hydrochloric acid/30% ethanol and the absorbance at 550 nm was determined with a microplatereader.

[3] = system: Mature female BALB/c mice; assay: Effect on uterus weight of mature mouse (anti-estrogenic activity); format: in vivo; conditions: dose 25 mg/kg, orally, repeatedly for 4 days; uteri isolated after 5 days; not treated group 106 mg
Protocol: The effect against the decrease in uterus weight of mature mouse
Mature female BALB/c mice, 9 weeks age, were divided into two groups (6 animals per group). The test compounds were repeatedly administered orally to one group for 4 days. After 5 days, the uteri were isolated and the weight thereof was measured.

SMILES | response vs control in vivo at 25 mg/kg [1] [%] | IC50 [2] [nM] | weight of uterus [3] [mg]
CN(C)CCN(C)CC(=O)OCc1c(F)c(N)c2c(=O)cc(-c3ccc(N)c(F)c3)oc2c1F [Compound 13, 5-Amino-2-(4-amino-3-fluorophenyl)-7-[N-(2-dimethylaminoethyl)-N-methylamino)acetoxymethyl-6,8-difluoro-4H-1-benzopyran-4-one] | 2.2 | – | –
CN1CCN(CC(=O)OCc2c(F)c(N)c3c(=O)cc(-c4ccc(N)c(F)c4)oc3c2F)CC1 [Compound 10, 5-Amino-2-(4-amino-3-fluorophenyl)-6,8-difluoro-7-(4-methylpiperazinyl)acetoxymethyl-4H-1-benzopyran-4-one] | 7 | 87 | –
Nc1ccc(-c2cc(=O)c3c(N)c(F)c(COC(=O)CN4CCC(O)CC4)c(F)c3o2)cc1F [Compound 12, 5-Amino-2-(4-amino-3-fluorophenyl) -6,8-difluoro-7-(4-hydroxypiperidino)acetoxymethyl-4H-1-benzopyran-4-one] | 3.5 | 18 | –
COC(=O)CNCC(=O)OCc1c(F)c(N)c2c(=O)cc(-c3ccc(N)c(F)c3)oc2c1F [Compound 14, 5-Amino-2-(4-amino-3-fluorophenyl)-6,8-difluoro-7-methoxycarbonylmethylaminoacetoxymethyl-4H-1-benzopyran-4-one] | 1.3 | 13 | –
CCN(CC)C(=O)OCc1c(F)c(N)c2c(=O)cc(-c3ccc(N)c(F)c3)oc2c1F [Compound 1, 5-Amino-2-(4-amino-3-fluorophenyl)-7-diethylcarbamoyloxymethyl-6,8-difluoro-4H-1-benzopyran-4-one] | – | 350 | –
CN(C)CCC(=O)OCc1c(F)c(N)c2c(=O)cc(-c3ccc(N)c(F)c3)oc2c1F [Compound 7, 5-Amino-2-(4-amino-3-fluorophenyl)-7-(3-dimethylaminopropionyl) oxymethyl-6,8-difluoro-4H-1-benzopyran-4-one] | 4.1 | 19 | –
CN(C)CC(=O)OCc1c(F)c(N)c2c(=O)cc(-c3ccc(N)c(F)c3)oc2c1F [Compound 6, 5-Amino-2-(4-amino-3-fluorophenyl) -7-dimethylaminoacetoxymethyl-6,8-difluoro-4H-1-benzopyran-4-one] | 1.2 | 26 | 67
C=CCOC(=O)OCc1c(F)c(N)c2c(=O)cc(-c3ccc(N)c(F)c3)oc2c1F [Compound 15, 7-Allyloxycarbonyloxymethyl-5-amino-2-(4-amino-3-fluorophenyl)-6,8-difluoro-4H-1-benzopyran-4-one] | – | 81 | –
Nc1ccc(-c2cc(=O)c3c(N)c(F)c(COC(=O)CN4CCCCC4)c(F)c3o2)cc1F [Compound 9, 5-Amino-2-(4-amino-3-fluorophenyl)-6,8-difluoro-7-piperidinoacetoxymethyl-4H-1-benzopyran-4-one] | 4.2 | 33 | –
Nc1ccc(-c2cc(=O)c3c(N)c(F)c(COC(=O)CN4CCOCC4)c(F)c3o2)cc1F [Compound 11, 5-Amino-2-(4-amino-3-fluorophenyl)-6,8-difluoro-7-morpholinoacetoxymethyl-4H-1-benzopyran-4-one] | 4.4 | 17 | –
CN(C)CCCC(=O)OCc1c(F)c(N)c2c(=O)cc(-c3ccc(N)c(F)c3)oc2c1F [Compound 8, 5-A-mino-2-(4-amino-3-fluorophenyl)-7-(4-dimethylaminobutyryl)oxymethyl-6,8-difluoro-4H-1-benzopyran-4-one] | 15 | 29 | –
CN1CCN(C(=O)OCc2c(F)c(N)c3c(=O)cc(-c4ccc(N)c(F)c4)oc3c2F)CC1 [Compound 2, 5-Amino-2-(4-amino-3-fluorophenyl)-6,8-difluoro-7-(4-methylpiperazinyl)carbonyloxymethyl-4H-1-benzopyran-4-one] | – | 230 | –
